According to article PMC4266362 (Journal of Medicinal Chemistry, 2014):

How the values were obtained:
primary mouse islets = assay: glucose-stimulated insulin secretion, static islet incubation; type: cell-based
human GLP-1R = human GLP-1R (Homo sapiens, UniProt P43220); assay: calcium mobilization PAM assay in human GLP-1R 9-3-H cells; type: cell-based
[1] = liver microsome predicted hepatic clearance, rat; type: in vitro ADME; details: well-stirred model
glucagon receptor (GR) = glucagon receptor (GR) (Homo sapiens, UniProt P47871); assay: duplexed calcium mobilization assay, glucagon receptor; type: cell-based; details: EC20 of glucagon
[2] = in vivo rat pharmacokinetics; details: male, Sprague-Dawley, plasma
[3] = tested on: 68 GPCRs, ion channels, and transporters; assay: Eurofin radioligand binding panel; details: 10 μM, 68 targets
rats = assay: spontaneous locomotor activity; type: in vivo; details: rat, 10–30 mg/kg i.p.
[4] = in vivo rat brain distribution; details: Sprague-Dawley, intraperitoneal, 10 mg/kg
[5] = biological target: melanocortin 4 receptor (MC4R) (Homo sapiens, UniProt P32245); assay: counter-screen against melanocortin 4 receptor; type: cell-based
melanocortin 4 receptor (MC4R), sequence (P32245 whole entry, species assumed): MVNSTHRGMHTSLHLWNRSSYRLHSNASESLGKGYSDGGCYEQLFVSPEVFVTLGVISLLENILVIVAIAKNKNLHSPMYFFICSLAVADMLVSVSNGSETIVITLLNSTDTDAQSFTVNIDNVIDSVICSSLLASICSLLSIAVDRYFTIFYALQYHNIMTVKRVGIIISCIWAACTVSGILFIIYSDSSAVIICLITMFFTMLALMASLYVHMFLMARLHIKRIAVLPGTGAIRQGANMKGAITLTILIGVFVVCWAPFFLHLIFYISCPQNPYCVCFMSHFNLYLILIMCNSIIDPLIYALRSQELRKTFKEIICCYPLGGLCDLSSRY

human GLP-1R, sequence (P43220 24-463): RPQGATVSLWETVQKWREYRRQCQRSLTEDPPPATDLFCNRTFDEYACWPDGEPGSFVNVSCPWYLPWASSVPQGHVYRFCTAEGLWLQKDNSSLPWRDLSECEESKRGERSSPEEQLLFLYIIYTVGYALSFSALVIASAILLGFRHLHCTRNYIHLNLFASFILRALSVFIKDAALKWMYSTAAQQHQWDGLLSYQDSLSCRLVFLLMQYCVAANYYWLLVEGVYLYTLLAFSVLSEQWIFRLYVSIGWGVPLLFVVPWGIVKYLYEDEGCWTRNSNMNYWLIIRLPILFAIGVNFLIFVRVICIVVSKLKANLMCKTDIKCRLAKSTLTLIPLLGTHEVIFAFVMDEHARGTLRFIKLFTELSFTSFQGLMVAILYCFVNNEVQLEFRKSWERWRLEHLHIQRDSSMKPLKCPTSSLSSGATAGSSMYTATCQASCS
glucagon receptor (GR), sequence (P47871 26-477, species assumed): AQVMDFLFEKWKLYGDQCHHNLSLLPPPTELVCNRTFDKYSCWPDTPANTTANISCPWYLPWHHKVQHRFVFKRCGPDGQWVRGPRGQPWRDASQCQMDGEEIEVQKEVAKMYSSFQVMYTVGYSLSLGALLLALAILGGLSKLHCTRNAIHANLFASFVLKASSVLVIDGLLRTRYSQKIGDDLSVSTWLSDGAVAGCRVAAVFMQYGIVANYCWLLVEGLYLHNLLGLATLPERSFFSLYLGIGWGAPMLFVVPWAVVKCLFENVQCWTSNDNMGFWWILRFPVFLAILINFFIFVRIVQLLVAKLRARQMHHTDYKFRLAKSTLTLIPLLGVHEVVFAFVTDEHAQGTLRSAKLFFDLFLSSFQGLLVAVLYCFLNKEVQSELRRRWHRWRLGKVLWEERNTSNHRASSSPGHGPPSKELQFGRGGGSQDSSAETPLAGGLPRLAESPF

| SMILES | potentiation of glucose-stimulated insulin secretion (primary mouse islets; primary mouse islets, in the presence of 2) [fold] | calcium response in the absence of GLP-1 (human GLP-1R; compound alone) | rat CLHEP [1] [mL/min/kg] | activity at GR (glucagon receptor (GR)) | clearance [2] [mL/min/kg] | effect on insulin secretion (primary mouse islets; 30 μM, in presence of 10 nM 1, low (5.6 mM) and high (11 mM) glucose, 60 min) | GLP-1R PAM activity / mode (pure PAM or ago-PAM) (human GLP-1R; calcium mobilization) | highest inhibition in radioligand binding panel [3] [%] | effect on spontaneous locomotor activity (rats) | Tmax [4] [min] | half-life ([2]; intravenous, 1 mg/kg) [min] | activity at MC4R [5] |
| --- | --- | --- | --- | --- | --- | --- | --- | --- | --- | --- | --- | --- |
| CCN1CCC[C@H]1CNC(=O)c1cn(C2CCCC2)c(=O)c2c1c1ccccc1n2C [(S)-8] | ~1.5 | no calcium response | 69 | no effect | 92 | – | – | – | – | – | – | – |
| CC(C)N1CCC[C@H]1CNC(=O)c1cn(C2CCCC2)c(=O)c2c1c1ccccc1n2C [(S)-9b, (S)-2-Cyclopentyl-N-((1-isopropylpyrrolidin-2-yl)methyl)-9-methyl-1-oxo-2,9-dihydro-1H-pyrido[3,4-b]indole-4-carboxamide] | – | – | – | – | – | significantly increased insulin secretion | ago-PAMs | ≤ 50 | no effect on locomotion or sedative effects | 30 | ~60 | – |
| CCN1CCCC1CNC(=O)c1cn(C2CCCC2)c(=O)c2c1c1ccccc1n2C (stereo not shown) [compound 8] | – | – | – | inactive | – | – | – | – | – | – | – | inactive |
